The values below come from patent US12358897B2, “Compounds and method of treating COVID-19” (Pfizer Inc., priority 2020, dated 2025).

The Ki is a measure of affinity in units of concentration, obtained from inhibition or displacement.

This assay addresses T1, full-length SARS-CoV-2 3CL protease (Severe acute respiratory syndrome coronavirus 2, UniProt P0DTD1).
T1 construct: measures the activity of full-length SARS-CoV-2 3CL protease
Kind of assay: SARS-CoV-2 Coronavirus 3C Protease FRET Assay (Dabcyl-KTSAVLQ-SGFRKME-Edans substrate). The settings on record: 15 nM enzyme, 25 μM peptide substrate, 60 minutes at 23° C.; Morrison equation fit; read-out: Geometric Mean Ki. Format: biochemical.

With `CCOc1nccc(C)c1C(=O)OCC(=O)[C@H](C[C@@H]1CCNC1=O)NC(=O)[C@H](CC(C)C)NC(=O)c1cc2c(OC)cccc2[nH]1` [Example 64, (3S)-3-({N-[(4-methoxy-1H-indol-2-yl)carbonyl]-L-leucyl}amino)-2-oxo-4-[(3S)-2-oxopyrrolidin-3-yl]butyl 2-ethoxy-4-methylpyridine-3-carboxylate], the inhibitory constant (Ki) was 34.9 nM.

With `COc1cc(C)c(C(=O)OCC(=O)[C@H](C[C@@H]2CCNC2=O)NC(=O)[C@H](CC(C)C)NC(=O)c2cc3c(OC)cccc3[nH]2)c(C)c1` [Example 73, (3S)-3-({N-[(4-methoxy-1H-indol-2-yl)carbonyl]-L-leucyl}amino)-2-oxo-4-[(3S)-2-oxopyrrolidin-3-yl]butyl 4-methoxy-2,6-dimethyl benzoate], the Ki is 117 nM. With `COc1cccc2[nH]c(C(=O)N[C@@H](CC(C)C)C(=O)N[C@@H](C[C@@H]3CCNC3=O)C(=O)COC(=O)[C@H]3CCCN3C)cc12` [Example 27, (3S)-3-({N-[(4-methoxy-1H-indol-2-yl)carbonyl]-L-leucyl}amino)-2-oxo-4-[(3S)-2-oxopyrrolidin-3-yl]butyl 1-methyl-D-prolinate] the figure was 0.0321 nM. With `COc1cccc2[nH]c(C(=O)N[C@@H](CC(C)C)C(=O)N[C@@H](C[C@@H]3CCNC3=O)C(=O)COC(=O)C3(C)CCN(C)CC3)cc12` [Example 17, (3S)-3-({N-[(4-methoxy-1H-indol-2-yl)carbonyl]-L-leucyl}amino)-2-oxo-4-[(3S)-2-oxopyrrolidin-3-yl]butyl 1,4-dimethylpiperidine-4-carboxylate] the figure was 17.5 nM. With `COc1cccc2[nH]c(C(=O)N[C@@H](CC(C)C)C(=O)N[C@@H](C[C@@H]3CCNC3=O)C(=O)COC(=O)c3ccncc3)cc12` [Example 34, (3S)-3-({N-[(4-methoxy-1H-indol-2-yl)carbonyl]-L-leucyl}amino)-2-oxo-4-[(3S)-2-oxopyrrolidin-3-yl]butyl pyridine-4-carboxylate] the figure was 0.598 nM; with `CC[C@@H](C)C(=O)OCC(=O)[C@H](C[C@@H]1CCNC1=O)NC(=O)[C@H](CC(C)C)NC(=O)c1cc2c(OC)cccc2[nH]1` [Example 19, (3S)-3-({N-[(4-methoxy-1H-indol-2-yl)carbonyl]-L-leucyl}amino)-2-oxo-4-[(3S)-2-oxopyrrolidin-3-yl]butyl (2R)-2-methylbutanoate], 64.8 nM; with `COc1cccc2[nH]c(C(=O)N[C@@H](CC(C)C)C(=O)N[C@@H](C[C@@H]3CCNC3=O)C(=O)COC(=O)c3cncn3C)cc12` [Example 45, (3S)-3-({N-[(4-methoxy-1H-indol-2-yl)carbonyl]-L-leucyl}amino)-2-oxo-4-[(3S)-2-oxopyrrolidin-3-yl]butyl 1-methyl-1H-imidazole-5-carboxylate], 40.7 nM. With `COc1cccc2[nH]c(C(=O)N[C@@H](CC(C)C)C(=O)N[C@@H](C[C@@H]3CCNC3=O)C(=O)COC(=O)C3(C)CC3)cc12` [Example 21, (3S)-3-({N-[(4-methoxy-1H-indol-2-yl)carbonyl]-L-leucyl}amino)-2-oxo-4-[(3S)-2-oxopyrrolidin-3-yl]butyl 1-methylcyclopropanecarboxylate], the Ki is 104 nM. With `COc1cccc2[nH]c(C(=O)N[C@@H](CC(C)C)C(=O)N[C@@H](C[C@@H]3CCNC3=O)C(=O)COC(=O)CN(C)C)cc12` [Example 4, (3S)-3-({N-[(4-methoxy-1H-indol-2-yl)carbonyl]-L-leucyl}amino)-2-oxo-4-[(3S)-2-oxopyrrolidin-3-yl]butyl N,N-dimethylglycinate] the figure was 2.98 nM; with `COc1cccc(C)c1C(=O)OCC(=O)[C@H](C[C@@H]1CCNC1=O)NC(=O)[C@H](CC(C)C)NC(=O)c1cc2c(OC)cccc2[nH]1` [Example 66, (3S)-3-({N-[(4-methoxy-1H-indol-2-yl)carbonyl]-L-leucyl}amino)-2-oxo-4-[(3S)-2-oxopyrrolidin-3-yl]butyl 2-methoxy-6-methylbenzoate], 39.6 nM. With `COc1cccc2[nH]c(C(=O)N[C@@H](CC(C)C)C(=O)N[C@@H](C[C@@H]3CCNC3=O)C(=O)COC(=O)c3c(C)cncc3C)cc12` [Example 68, (3S)-3-({N-[(4-methoxy-1H-indol-2-yl)carbonyl]-L-leucyl}amino)-2-oxo-4-[(3S)-2-oxopyrrolidin-3-yl]butyl 3,5-di methylpyridine-4-carboxylate] the figure was 7.56 nM; with `COc1cccc2[nH]c(C(=O)N[C@@H](CC(C)C)C(=O)N[C@@H](C[C@@H]3CCNC3=O)C(=O)COC(=O)c3c(C)nn(C)c3C)cc12` [Example 48, (3S)-3-({N-[(4-methoxy-1H-indol-2-yl)carbonyl]-L-leucyl}amino)-2-oxo-4-[(3S)-2-oxopyrrolidin-3-yl]butyl 1,3,5-trimethyl-1H-pyrazole-4-carboxylate], 255 nM. With `COc1cccc2[nH]c(C(=O)N[C@@H](CC(C)C)C(=O)N[C@@H](C[C@@H]3CCNC3=O)C(=O)COC(=O)c3cn(C)nc3C)cc12` [Example 39, (3S)-3-({N-[(4-methoxy-1H-indol-2-yl)carbonyl]-L-leucyl}amino)-2-oxo-4-[(3S)-2-oxopyrrolidin-3-yl]butyl 1,3-dimethyl-1H-pyrazole-4-carboxylate] the figure was 91.9 nM.

For the compound `COc1cccc2[nH]c(C(=O)N[C@@H](CC(C)C)C(=O)N[C@@H](C[C@@H]3CCNC3=O)C(=O)COC(=O)[C@@H]3CCCN3C)cc12` [Example 28, (3S)-3-({N-[(4-methoxy-1H-indol-2-yl)carbonyl]-L-leucyl}amino)-2-oxo-4-[(3S)-2-oxopyrrolidin-3-yl]butyl 1-methyl-L-prolinate], the Ki was 2.47 nM. With `COc1cccc2[nH]c(C(=O)N[C@@H](CC(C)C)C(=O)N[C@@H](C[C@@H]3CCNC3=O)C(=O)COC(=O)c3c(C)ccnc3CN(C)C)cc12` [Example 59, (3S)-3-({N-[(4-methoxy-1H-indol-2-yl)carbonyl]-L-leucyl}amino)-2-oxo-4-[(3S)-2-oxopyrrolidin-3-yl]butyl 2-[(dimethylamino)methyl]-4-methylpyridine-3-carboxylate] the figure was 13.6 nM; with `COc1cccc2[nH]c(C(=O)N[C@@H](CC(C)C)C(=O)N[C@@H](C[C@@H]3CCNC3=O)C(=O)COC(=O)c3c(C)cccc3F)cc12` [Example 72, (3S)-3-({N-[(4-methoxy-1H-indol-2-yl)carbonyl]-L-leucyl}amino)-2-oxo-4-[(3S)-2-oxopyrrolidin-3-yl]butyl 2-fluoro-6-methylbenzoate], 8.91 nM.

As to `COc1cccc2[nH]c(C(=O)N[C@@H](CC(C)C)C(=O)N[C@@H](C[C@@H]3CCNC3=O)C(=O)COC(=O)c3ccccc3C)cc12` [Example 11, (3S)-3-({N-[(4-methoxy-1H-indol-2-yl)carbonyl]-L-leucyl}amino)-2-oxo-4-[(3S)-2-oxopyrrolidin-3-yl]butyl 2-methylbenzoate], the inhibition constant Ki was 71.4 nM. With `COc1cccc2[nH]c(C(=O)N[C@@H](CC(C)C)C(=O)N[C@@H](C[C@@H]3CCNC3=O)C(=O)COC(=O)c3ccccc3Cl)cc12` [Example 16, (3S)-3-({N-[(4-methoxy-1H-indol-2-yl)carbonyl]-L-leucyl}amino)-2-oxo-4-[(3S)-2-oxopyrrolidin-3-yl]butyl 2-chlorobenzoate] the figure was 10.5 nM.
